Data from PubChem BioAssay AID2060332 (Molecular Pharmacology Branch, DTP, NCI, 2025).

System: LG0567-F671-PDC multi-cell spheroid viability
Assay: Anticancer human tumor LG0567-F671-PDC patient-derived lung adenocarcinoma cell line growth inhibition [IpAb]
Details: for IC50: curve of first compound; for viability, T/C: stronger effect = lower value
In short: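 Combinations with ipatasertib or abemaciclib were tested on tumour spheroids holding HUVEC (25%) and MSC (15%) alongside 60% malignant cells. Top concentration was at or near clinical Cmax (10 microM if undefined), descending in half-log steps.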

[1] = second compound 0.01 µM, first compound 0.0316 µM
[2] = second compound 0.01 µM, first compound 0.1 µM
[3] = second compound 0.01 µM, first compound 0.316 µM
[4] = second compound 0.01 µM, first compound 1 µM
[5] = second compound 0.01 µM, first compound 3.16 µM
[6] = second compound 0.01 µM, first compound 10 µM
[7] = second compound 0.0316 µM, first compound 0.0316 µM
[8] = second compound 0.0316 µM, first compound 0.1 µM
[9] = second compound 0.0316 µM, first compound 0.316 µM
[10] = second compound 0.0316 µM, first compound 1 µM
[11] = second compound 0.0316 µM, first compound 3.16 µM
[12] = second compound 0.0316 µM, first compound 10 µM
[13] = second compound 0.1 µM, first compound 0.0316 µM
[14] = second compound 0.1 µM, first compound 0.1 µM
[15] = second compound 0.1 µM, first compound 0.316 µM
[16] = second compound 0.1 µM, first compound 1 µM
[17] = second compound 0.1 µM, first compound 3.16 µM
[18] = second compound 0.1 µM, first compound 10 µM
[19] = second compound 0.316 µM, first compound 0.0316 µM
[20] = second compound 0.316 µM, first compound 0.1 µM
[21] = second compound 0.316 µM, first compound 0.316 µM
[22] = second compound 0.316 µM, first compound 1 µM
[23] = second compound 0.316 µM, first compound 3.16 µM
[24] = second compound 0.316 µM, first compound 10 µM
[25] = second compound 1 µM, first compound 0.0316 µM
[26] = second compound 1 µM, first compound 0.1 µM
[27] = second compound 1 µM, first compound 0.316 µM
[28] = second compound 1 µM, first compound 1 µM
[29] = second compound 1 µM, first compound 3.16 µM
[30] = second compound 1 µM, first compound 10 µM
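Further: viability read after 7 days of drug exposure.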
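Wherever viability, T/C is given: 100% = DMSO vehicle control luminescence.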

SMILES | IC50 (second compound 0.01 µM) [nM] | IC50 (second compound 0.0316 µM) [nM] | IC50 (second compound 0.1 µM) [nM] | IC50 (second compound 0.316 µM) [nM] | IC50 (second compound 1 µM) [nM] | viability, T/C [1] [%] | viability, T/C [2] [%] | viability, T/C [3] [%] | viability, T/C [4] [%] | viability, T/C [5] [%] | viability, T/C [6] [%] | viability, T/C [7] [%] | viability, T/C [8] [%] | viability, T/C [9] [%] | viability, T/C [13] [%] | viability, T/C [14] [%] | viability, T/C [19] [%] | viability, T/C [20] [%] | viability, T/C [25] [%] | viability, T/C [26] [%] | other results
C=CCn1c(=O)c2cnc(Nc3ccc(N4CCN(C)CC4)cc3)nc2n1-c1cccc(C(C)(C)O)n1 + CCN1CCN(Cc2ccc(Nc3ncc(F)c(-c4cc(F)c5nc(C)n(C(C)C)c5c4)n3)nc2)CC1 | 800 | 310 | 518 | 240 | 359 | 95 | 68.1 | 66.8 | 48.4 | 31.9 | 32 | 94.2 | 52.9 | 54.9 | 64.2 | 50.4 | 57.8 | 52.9 | 63.8 | 59.8 | viability, T/C [10]: 48.5%; viability, T/C [11]: 36.4%; viability, T/C [12]: 23.8%; viability, T/C [15]: 51.2%; viability, T/C [16]: 51.1%; viability, T/C [17]: 35%; viability, T/C [18]: 23.8%; viability, T/C [21]: 46.9%; viability, T/C [22]: 45.6%; viability, T/C [23]: 35.8%; viability, T/C [24]: 27.9%; viability, T/C [27]: 49.2%; viability, T/C [28]: 43.9%; viability, T/C [29]: 33.9%; viability, T/C [30]: 29.4%
CC(C)n1nc(-c2ccc3oc(N)nc3c2)c2c(N)ncnc21 + CCN1CCN(Cc2ccc(Nc3ncc(F)c(-c4cc(F)c5nc(C)n(C(C)C)c5c4)n3)nc2)CC1 | 30.5 | 11.6 | 13.5 | 6.93 | 6.59 | 50 | 38.6 | – | – | – | – | 34.9 | 35 | – | 46.7 | 29.1 | 39.6 | 36.8 | 43.6 | 27.9 | viability, T/C (second compound 0.01 µM, first compound 0.000316 µM): 111%; viability, T/C (second compound 0.01 µM, first compound 0.001 µM): 88.4%; viability, T/C (second compound 0.01 µM, first compound 0.00316 µM): 65.4%; viability, T/C (second compound 0.01 µM, first compound 0.01 µM): 70.2%; viability, T/C (second compound 0.0316 µM, first compound 0.000316 µM): 86.8%; viability, T/C (second compound 0.0316 µM, first compound 0.001 µM): 80.8%; viability, T/C (second compound 0.0316 µM, first compound 0.00316 µM): 73.8%; viability, T/C (second compound 0.0316 µM, first compound 0.01 µM): 52.9%; viability, T/C (second compound 0.1 µM, first compound 0.000316 µM): 65.5%; viability, T/C (second compound 0.1 µM, first compound 0.001 µM): 70.2%; viability, T/C (second compound 0.1 µM, first compound 0.00316 µM): 47.8%; viability, T/C (second compound 0.1 µM, first compound 0.01 µM): 55.6%; viability, T/C (second compound 0.316 µM, first compound 0.000316 µM): 66.4%; viability, T/C (second compound 0.316 µM, first compound 0.001 µM): 53.2%; viability, T/C (second compound 0.316 µM, first compound 0.00316 µM): 69.8%; viability, T/C (second compound 0.316 µM, first compound 0.01 µM): 38.5%; viability, T/C (second compound 1 µM, first compound 0.000316 µM): 57.1%; viability, T/C (second compound 1 µM, first compound 0.001 µM): 61.7%; viability, T/C (second compound 1 µM, first compound 0.00316 µM): 56.3%; viability, T/C (second compound 1 µM, first compound 0.01 µM): 40.9%
CC1(C)CCC(CN2CCN(c3ccc(C(=O)NS(=O)(=O)c4ccc(NCC5CCOCC5)c([N+](=O)[O-])c4)c(Oc4cnc5[nH]ccc5c4)c3)CC2)=C(c2ccc(Cl)cc2)C1 + CCN1CCN(Cc2ccc(Nc3ncc(F)c(-c4cc(F)c5nc(C)n(C(C)C)c5c4)n3)nc2)CC1 | 7190 | 5800 | 5910 | 4880 | 4690 | 96.5 | 123 | 106 | 105 | 119 | 25.9 | 63.6 | 95.8 | 87.1 | 80.5 | 86.9 | 69.6 | 76.1 | 69.6 | 80.3 | viability, T/C [10]: 72.2%; viability, T/C [11]: 83.2%; viability, T/C [12]: 22.6%; viability, T/C [15]: 83.2%; viability, T/C [16]: 84.5%; viability, T/C [17]: 83%; viability, T/C [18]: 22.2%; viability, T/C [21]: 80.8%; viability, T/C [22]: 76.9%; viability, T/C [23]: 73.3%; viability, T/C [24]: 11.4%; viability, T/C [27]: 64%; viability, T/C [28]: 68.8%; viability, T/C [29]: 67.1%; viability, T/C [30]: 17.5%
CCCS(=O)(=O)Nc1ccc(F)c(C(=O)c2c[nH]c3ncc(-c4ccc(Cl)cc4)cc23)c1F + CCN1CCN(Cc2ccc(Nc3ncc(F)c(-c4cc(F)c5nc(C)n(C(C)C)c5c4)n3)nc2)CC1 | > 10000 | > 10000 | > 10000 | > 10000 | > 10000 | 104 | 140 | 112 | 145 | 169 | 168 | 93.3 | 105 | 140 | 77.4 | 98.8 | 68.8 | 86.3 | 66.9 | 88.3 | viability, T/C [10]: 121%; viability, T/C [11]: 156%; viability, T/C [12]: 115%; viability, T/C [15]: 91.6%; viability, T/C [16]: 113%; viability, T/C [17]: 154%; viability, T/C [18]: 92.1%; viability, T/C [21]: 91.7%; viability, T/C [22]: 108%; viability, T/C [23]: 80.1%; viability, T/C [24]: 55.4%; viability, T/C [27]: 73.7%; viability, T/C [28]: 70.4%; viability, T/C [29]: 76.9%; viability, T/C [30]: 65.1%
